US10231980B2, “Cortexolone 17alpha-benzoate for use in the treatment of tumours” (COSMO TECHNOLOGIES LTD., priority 2014, dated 2019)
Read-outs that look alike come from different tables or passages of the source.

Key:
[1] = test system: HT29; test: MTT colorimetric assay on epithelial intestinal cancer cells; format: cell-based; details: human, 72 h
Description: The experiment was performed to test and define anticancer activity in vitro of Cortexolone 17α-benzoate and cortexolone 17α-valerate, 21-propionate on cell lines representatives of epithelial intestinal tumours, namely HT29. The experiment method consisted in: • 1. Monolayer HT-29 cells were plated in: 96-wells plates at the density of 2×10^4 cells/mL. The cells plated were kept at 37° C. in 5% CO2 and left to attach for 24 h. • 2. […] After 72 h of treatment, the MTT colorimetric assay was performed.

[2] = test system: LNCaP; test: ATP-dependent cell viability assay (Cell Titer Glo), Example 12; details: for IC50: Homo sapiens, LNCaP; for Therapeutic Index = IC50 resting PBMC/IC50 cancer cell / Therapeutic Index = IC50 stimulated PBMC/IC50 cancer cell: human, 3 days
Source text: (§1) Data shown in Table I were fitted through sigmoidal dose response curves and analyzed using Prizm statistical.

[3] = test system: MiaPaca2; test: as above; details: human, 3 days
Source text: as §1

[4] = test system: PC3; test: as above; details: for IC50: Homo sapiens; for Therapeutic Index = IC50 resting PBMC/IC50 cancer cell / Therapeutic Index = IC50 stimulated PBMC/IC50 cancer cell: human
Source text: as §1

[5] = test system: Panc1; test: as above; details: human, 3 days
Source text: as §1

[6] = test system: MCF7; test: In vitro proliferation / cytotoxic assay on breast cancer cells (Examples 14, 25); details: human, 3 days
Description: as §1
For the cytotoxic assay, cells were seeded in 96-well flat bottom culture plates in media containing charcoal stripped serum. After 24 hours, test compounds were added to the cells. DMSO was used as the vehicle negative control and RU486 as the positive control. After 72 hour incubation, cells were harvested and lysed to determine cell viability using the Cell Titer Glow assay.

[7] = test system: 7 cancer cell lines; test: Therapeutic index over a panel of cancer cell lines; format: cell-based; details: average over the cancer cell lines of Table VII
Description: The compound toxicity was determined as follow:
Therapeutic Index=Safety/Potency=IC50 stimulated PBMC/IC50 cancer cell

[8] = test system: stimulated PBMC; test: IC50 on stimulated (actively dividing) PBMC; format: cell-based, human; details: PBMC Stim; Table IV
[9] = read-out: In vitro proliferation IC50
[10] = PC-3, 72 h, PC3, Tables I and II, titrated 3 uM to 200 uM, 3 days
[11] = PC-3, read-out: In vitro proliferation IC50, PC3, Table IV

SMILES	Therapeutic Index = IC50 resting PBMC/IC50 cancer cell [1]	Therapeutic Index = IC50 stimulated PBMC/IC50 cancer cell [1]	IC50 ([2]; 72 h)	IC50 [2, 9]	Therapeutic Index = IC50 resting PBMC/IC50 cancer cell [2]	Therapeutic Index = IC50 stimulated PBMC/IC50 cancer cell [2]	Therapeutic Index = IC50 resting PBMC/IC50 cancer cell [3]	Therapeutic Index = IC50 stimulated PBMC/IC50 cancer cell [3]	IC50 [4, 10]	IC50 [4, 11]	Therapeutic Index = IC50 resting PBMC/IC50 cancer cell ([4]; 3 days)	Therapeutic Index = IC50 stimulated PBMC/IC50 cancer cell ([4]; 3 days)	Therapeutic Index = IC50 resting PBMC/IC50 cancer cell [5]	Therapeutic Index = IC50 stimulated PBMC/IC50 cancer cell [5]	Therapeutic Index = IC50 resting PBMC/IC50 cancer cell [6]	Therapeutic Index = IC50 stimulated PBMC/IC50 cancer cell [6]	Therapeutic Index = IC50 stimulated PBMC/IC50 cancer cell, AVERAGE [7]	Therapeutic Index = IC50 resting PBMC/IC50 cancer cell [8]
CCCC(=O)OC1(C(=O)CO)CCC2C3CCC4=CC(=O)CC[C@]4(C)C3=CC[C@@]21C (single isomer, unassigned) [CB-03-04]	7	7	46 µM	46 µM	8	8	2	2	135 µM	140 µM	3	3	1	1	4	4	4	1
CCC(=O)O[C@]1(C(=O)CO)CC[C@H]2[C@@H]3CCC4=CC(=O)CC[C@]4(C)[C@H]3CC[C@@]21C [CB-03-01, cortexolone 17α-propionate]	–	–	33 µM	33 µM	0	0	0	0	190 µM	190 µM	0	0	0	0	0	0	0	1
